Earlier results on two compounds are cited in US6514490B2, “Compositions containing an antifungal and a cationic agent” (Janssen Pharmaceutica N.V., priority 1997, dated 2003).

The conditions of the data set: prior art medicated shampoo, anti-dandruff treatment.

On to `S=[Se]=S` [selenium sulfide], for which the “number of patients not responding to particular medicated shampoo” value is listed as “up to 40%”. On to `CC(=O)N1CCN(c2ccc(OCC3COC(Cn4ccnc4)(c4ccc(Cl)cc4Cl)O3)cc2)CC1` (centres unmarked) [ketoconazole], for which the “number of patients not responding to particular medicated shampoo” value is listed as “up to 30%”.
